The target of test [1] is T1, UGT74AF3b (Camellia sinensis, UniProt A0A4S4DWR1).
T1 construct: gene TEA_014443; full-length, N-terminal GST tag (pGEX-4T-1), E. coli BL21(DE3) pLysS, GST-resin purified; Ala at residue 456
Kind of test: glucosyltransferase kinetics (UDP-Glo assay / LC-MS; readout for kinetics not told). Type of test: biochemical. The following applies: optimized conditions (optimum pH 8.5, 30 °C); sugar donor not stated for kinetics, presumably UDP-glucose. From the text:
glucosyltransferase kinetics (UDP-Glo assay / LC-MS; readout for kinetics not told) on UGT74AF3b

Test [2] concerns the target T1, UGT74AF3b. Kind of test: relative glycosyltransferase activity. As to conditions: UDP-Glc, UDP-Gal or UDP-GA as sugar donor. The class given is biochemical.

Usually Km stands for the substrate concentration at which the rate is half of its maximum.

T1 sequence (A0A4S4DWR1 entry or part of it): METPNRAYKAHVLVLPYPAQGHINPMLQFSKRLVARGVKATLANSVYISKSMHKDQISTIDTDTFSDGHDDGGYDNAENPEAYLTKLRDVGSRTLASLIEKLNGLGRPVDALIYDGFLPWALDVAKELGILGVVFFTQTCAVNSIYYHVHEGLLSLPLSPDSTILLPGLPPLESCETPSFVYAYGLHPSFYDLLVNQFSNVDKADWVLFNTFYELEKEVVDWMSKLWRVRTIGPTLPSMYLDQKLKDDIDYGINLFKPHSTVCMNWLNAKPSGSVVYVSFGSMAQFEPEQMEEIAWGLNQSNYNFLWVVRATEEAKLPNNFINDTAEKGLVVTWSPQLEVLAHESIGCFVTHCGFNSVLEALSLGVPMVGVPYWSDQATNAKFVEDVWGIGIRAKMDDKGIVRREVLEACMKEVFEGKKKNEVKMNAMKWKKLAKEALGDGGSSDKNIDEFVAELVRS

For `CC1=C(O)C(=O)C(C)O1` (centres unmarked) [HDMF, 4-Hydroxy-2,5-dimethylfuran-3(2H)-one], the Michaelis constant (Km) on UGT74AF3b [1] is 5.14 ± 1.58 µM. In addition, at UGT74AF3b [2], the relative enzymatic activity entry is “The A456V mutant exhibited enhanced glucosylation activity toward HDMF, EHMF, and HMF”.

Source of the values: PMC7049299, “UGT74AF3 enzymes specifically catalyze the glucosylation of 4-hydroxy-2,5-dimethylfuran-3(2H)-one, an important volatile compound in Camellia sinensis” (Horticulture Research, 2020).
